Data as given in patent EP0765320B1, “BENZIMIDAZOLONE DERIVATIVES WITH CENTRAL DOPAMINERGIC ACTIVITY” (PFIZER INC., priority 1994, dated 1995).

How the values were obtained:
[1] = molecular target: T1, human dopamine D4 receptor (Homo sapiens, UniProt P21917); assay: D4 dopaminergic activity: [3H]Spiperone competition binding (assay similar to the one described); conditions: assay similar to the [3H]Spiperone binding assay on clonal cell lines expressing the human dopamine D4 receptor
T1 construct: expressed in transfected cells
T1 sequence (P21917 1-419): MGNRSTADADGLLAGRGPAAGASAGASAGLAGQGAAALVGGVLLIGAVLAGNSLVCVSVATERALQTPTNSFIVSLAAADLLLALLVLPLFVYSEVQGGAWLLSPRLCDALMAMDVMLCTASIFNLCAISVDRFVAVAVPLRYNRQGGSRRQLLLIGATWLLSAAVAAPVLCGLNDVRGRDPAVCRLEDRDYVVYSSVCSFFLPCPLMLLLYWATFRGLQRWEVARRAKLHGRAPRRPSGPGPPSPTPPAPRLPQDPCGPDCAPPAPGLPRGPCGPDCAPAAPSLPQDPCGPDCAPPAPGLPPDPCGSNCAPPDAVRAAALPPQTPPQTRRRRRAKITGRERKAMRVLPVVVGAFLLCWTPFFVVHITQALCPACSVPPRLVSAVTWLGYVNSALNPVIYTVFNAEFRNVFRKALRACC
Method: The D4 dopaminergic activity of the compounds of the present invention may be determined by the following procedure.
(§1) The determination of D4 dopaminergic activity has been described by Van Tol et al., Nature, vol. 350, 610 (London, 1991). Clonal cell lines expressing the human dopamine D4 receptor are harvested and homogenized (teflon pestle) in a 50 mM Tris:HCI (pH 7.4 at 4°C) buffer containing 5 mM EDTA, 1.5 mM calcium chloride (CaCl2), 5 mM magnesium chloride (MgCL2), 5mM potassium chloride (KCI) and 120 mM sodium chloride (NaCI). The homogenates are centrifugated for 15 min. at 39,000 g, and the resulting pellets resuspended in a buffer at a concentration of 150-250 µg/ml. For saturation experiments, 0.25 ml aliquots of tissue homogenate are incubated in duplicate with increasing concentrations of [^3H] Spiperone (70.3 Ci/mmol; 10-3000 pM final concentration) for 30-120 minutes at 22°C in a total volume of 1 ml. […] Assays are terminated by rapid filtration through a Titertek cell harvester and the filters subsequently monitored for tritium as described by Sunahara, R.K. et al., Nature, 346, 76-80 (1990). […] Both saturation and competition binding data are analyzed by the non-linear least square curve-fitting program Ligand run on a digital Micro-PP-11 as described by Sunahara et al.

D2 receptor = D2 receptor (Homo sapiens, UniProt P14416); assay: D2 receptor binding in an assay similar to the D4 [3H]Spiperone binding assay; conditions: assay similar to the described [3H]Spiperone binding assay
D2 receptor, sequence (P14416 whole entry): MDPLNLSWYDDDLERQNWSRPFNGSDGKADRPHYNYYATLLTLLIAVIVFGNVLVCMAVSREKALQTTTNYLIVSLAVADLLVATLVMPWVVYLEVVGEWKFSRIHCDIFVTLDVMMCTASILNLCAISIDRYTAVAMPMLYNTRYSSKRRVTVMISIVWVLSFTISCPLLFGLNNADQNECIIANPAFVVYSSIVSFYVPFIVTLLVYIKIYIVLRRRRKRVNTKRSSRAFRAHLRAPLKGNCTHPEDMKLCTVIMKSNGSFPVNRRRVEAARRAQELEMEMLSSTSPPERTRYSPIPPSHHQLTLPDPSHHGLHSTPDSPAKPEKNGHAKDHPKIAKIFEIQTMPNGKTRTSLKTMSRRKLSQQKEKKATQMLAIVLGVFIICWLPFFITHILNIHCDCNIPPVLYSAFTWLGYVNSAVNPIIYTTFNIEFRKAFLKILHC
Method: as §1

For `O=c1[nH]c2ccccc2n1CCCN1CCN(c2ccc(C(F)(F)F)cn2)CC1` [Example 4, 1-{3-[4-(5-Trifluoromethyl-pyridin-2-yl)-piperazine-1-yl]-propyl}-1,3-dihydrobenzoimidazol-2-one], the IC50 [1] was no more than 110 nM and the IC50 (D2 receptor) was 1000 to 3300 nM.

Molecule `O=c1[nH]c2ccccc2n1CCCN1CCN(c2ccc(Cl)cn2)CC1` [Example 1, 1-{3-[4-(5-Chloro-pyridin-2-yl)-piperazin-1-yl]-propyl}-1,3-dihydrobenzoimidazol-2-one] has an IC50 [1] of no more than 110 nM and an IC50 (D2 receptor) of 1000 to 3300 nM.
